Data on 11 molecules can be found in ChEMBL document CHEMBL1212917, “Substituted E-3-(3-indolylmethylene)-1,3-dihydroindol-2-ones with antitumor activity. In depth study of the effect on growth of breast cancer cells” (2010).

Assay type in all cases: functional
A short description of test [1]: Growth inhibition of human leukemia cells after 48 hrs. The settings on record: Leukemia cell; for CC50: read-out: LC50 (the source's name).
For test [2], the system named is NSCLC. The test can be described thus: Growth inhibition of human NSCLC cells after 48 hrs.
Test [3] is described as follows: Growth inhibition of human colon cancer cells after 48 hrs. As to conditions: Cancer cell lines; for CC50: read-out: LC50 (the source's name).
A short description of test [4]: Growth inhibition of human CNS cancer cells after 48 hrs. As to conditions: Cancer cell lines; for CC50: read-out: LC50 (the source's name).
Test [5] can be described thus: Growth inhibition of human melanoma cells after 48 hrs. The settings on record: Melanoma cell; for CC50: read-out: LC50 (the source's name).
Test [6] in a line: Growth inhibition of human Ovarian cancer cells after 48 hrs. The settings on record: Cancer cell lines; for CC50: read-out: LC50 (the source's name).
A short description of test [7]: Growth inhibition of human renal cancer cells after 48 hrs. The settings on record: Cancer cell lines; for CC50: read-out: LC50 (the source's name).
A short description of test [8]: Growth inhibition of human prostate cancer cells after 48 hrs. The settings on record: Cancer cell lines; for CC50: read-out: LC50 (the source's name).
A short description of test [9]: Growth inhibition of human breast cancer cells after 48 hrs. As to conditions: Cancer cell lines; for CC50: read-out: LC50 (the source's name).

Take `COc1ccc2c(c1)/C(=C\c1c(Cl)[nH]c3ccc(N(C)C)cc13)C(=O)N2`: the GI50 in test [1] came out at 1620 nM; in [2], 3.02 µM; in [3] it was 1550 nM; in test [4] it was 2090 nM; in [5] it was 3.55 µM; in test [6], 3.39 µM. In addition, the GI50 was 3.02 µM in test [7], 2.88 µM in test [8] and 1150 nM in [9]. Besides, the CC50 in test [1] stood at 72.4 µM; in [3], 30.2 µM; in test [4], 32.4 µM; in test [5], 44.7 µM; in test [6], 50.1 µM; in [7], 52.5 µM. Further, the CC50 in test [8] turned out to be 50.1 µM; in test [9] it was 55 µM. In test [2], the LC50 is 58.9 µM.
With `Cc1cc2c(cc1O)/C(=C\c1c(Cl)[nH]c3c1ccc1ccccc13)C(=O)N2`, the concentration for 50% growth inhibition (GI50) in [1] turned out to be 3310 nM; in test [2], 7.94 µM; in test [3] it was 6610 nM; in test [4] it was 8710 nM; in [5], 6.46 µM; in test [6], 9.12 µM. The GI50 in [7] was 8.71 µM; in test [9] it was 3720 nM. The concentration for total growth inhibition (TGI) in test [1] came out at 38 µM; in test [2], 30.2 µM; in test [3], 20.9 µM; in test [4] it was 24.6 µM; in [5], 20.9 µM; in [6], 46.8 µM. The TGI in [7] amounted to 33.1 µM; in [8] it was 26.3 µM; in [9] it was 19.1 µM. Besides, the CC50 in test [3] was determined as 61.7 µM; in [4] it was 67.6 µM; in [5] it was 57.5 µM; in test [6] it was 87.1 µM; in test [7], 75.9 µM; in test [8] it was 74.1 µM. Moreover, the CC50 in test [9] was found to be 69.2 µM.
`COc1cc2c(cc1C)NC(=O)/C2=C/c1c[nH]c2ccccc12`: the GI50 in [1] was 8710 nM; in [2], 13.5 µM; in test [3], 8130 nM; in test [4], 10000 nM; in test [5] it was 13.2 µM; in test [6], 12.6 µM. Also, the values for the GI50 in [7], in test [8] and in test [9] were 11.5 µM, 13.8 µM and 11800 nM, respectively. The TGI in test [1] was 55 µM; in test [2], 43.6 µM; in test [3] it was 52.5 µM; in test [4], 33.9 µM; in test [5], 37.1 µM; in test [6] it was 45.7 µM. Moreover, the figures for the TGI in test [7], in test [8] and in [9] were 38 µM, 36.3 µM and 40.7 µM, respectively. The same molecule showed a 50% lethal concentration (LC50) in [2] of 89.1 µM. In addition, the CC50 is 95.5 µM in test [3]; 95.5 µM in test [4]; 81.3 µM in test [5]; 97.7 µM in [6]; 85.1 µM in test [7]; 91.2 µM in [8]. Also, in [9], the CC50 was 91.2 µM.
In the case of `O=C1Nc2cccc(Cl)c2/C1=C\c1c(Cl)[nH]c2c1ccc1ccccc12`, the concentration for 50% growth inhibition (GI50) in test [1] was 5500 nM; in test [2] it was 9.55 µM; in test [3], 4900 nM; in [4], 3630 nM; in test [5] it was 4.57 µM; in test [6], 2.51 µM. For the same molecule, the GI50 was 8.91 µM in test [7], 10.2 µM in test [8] and 5010 nM in test [9]. Besides, the TGI came out at 25.7 µM in test [1]; 28.2 µM in test [2]; 17.4 µM in [3]; 17.8 µM in test [4]; 19.1 µM in test [5]; 13.2 µM in [6]. In addition, the TGI in test [7] came out at 23.4 µM; in [8], 31.6 µM; in test [9], 19.9 µM. The CC50 was determined as 75.9 µM in test [1]; 47.9 µM in [3]; 53.7 µM in test [4]; 46.8 µM in test [5]; 57.5 µM in [6]; 56.2 µM in test [7]. Also, the CC50 stood at 63.1 µM in test [8] and 67.6 µM in test [9]. This molecule gave an LC50 in test [2] of 72.4 µM.
In test [8], `O=C1Nc2ccc(Cl)cc2/C1=C\c1c(Cl)[nH]c2c1ccc1ccccc12` showed a concentration for 50% growth inhibition (GI50) of 0.38 µM.
For `COc1cc2c(/C=C3/C(=O)N(C)c4ccccc43)c[nH]c2cc1C`, the concentration for 50% growth inhibition (GI50) was 2000 nM in [1]; 6.31 µM in test [2]; 760 nM in test [3]; 1070 nM in [4]; 3.09 µM in test [5]; 7.76 µM in [6]. The GI50 in test [7] was 4.17 µM; in test [8], 4.17 µM; in [9], 1780 nM. In addition, the total growth inhibition concentration (TGI) in test [1] was 35.5 µM; in test [2], 66.1 µM; in test [3] it was 60.3 µM; in test [4], 42.7 µM; in test [5], 74.1 µM; in test [6] it was 60.3 µM. Further, the TGI in test [7] was determined as 60.3 µM; in test [8] it was 81.3 µM; in test [9], 55 µM. The CC50 in test [1] amounted to 93.3 µM; in [3] it was 97.7 µM; in test [4], 95.5 µM; in test [5], 97.7 µM. The same molecule showed an LC50 in test [2] of 93.3 µM.
For the molecule `O=C1Nc2ccc(F)cc2/C1=C\c1c(Cl)[nH]c2c1ccc1ccccc12`, the CC50 in [4] was found to be 51.3 µM. For the same molecule, in test [9], the GI50 was 400 nM and the CC50 was found to be 70.8 µM.
With `COc1cc2c(/C=C3/C(=O)N(C)c4ccc(O)cc43)c[nH]c2cc1C`, the GI50 came out at 3470 nM in [1]; 6.03 µM in test [2]; 2950 nM in test [3]; 3720 nM in [4]; 3.24 µM in test [5]; 5.62 µM in test [6]. Besides, the values for the GI50 in test [7], in test [8] and in test [9] were 5.89 µM, 3.55 µM and 2750 nM, respectively. Further, the TGI was 36.3 µM in test [1]; 21.9 µM in [2]; 24.6 µM in test [3]; 24 µM in test [4]; 15.1 µM in test [5]; 31.6 µM in [6]. The TGI in test [7] was determined as 28.2 µM; in test [8], 15.8 µM; in test [9], 16.2 µM. Moreover, the 50% lethal concentration (LC50) in [2] was found to be 91.2 µM. The CC50 in [4] is 67.6 µM; in test [5] it was 66.1 µM; in [6] it was 95.5 µM; in [7], 93.3 µM; in test [9], 63.1 µM.
As to `COc1cc2c(/C=C3/C(=O)Nc4ccccc43)c[nH]c2cc1C`, the results for the GI50 in test [1] and in test [9] were 90 nM and 120 nM, respectively. The CC50 in test [4] is 53.7 µM.
Take `COc1cc2c(/C=C3/C(=O)Nc4cc(Cl)ccc43)c(Cl)[nH]c2cc1C`: the 50% growth inhibitory concentration (GI50) in [1] turned out to be 140 nM; in test [2] it was 0.43 µM; in test [3], 170 nM; in test [4], 120 nM; in [5], 0.23 µM; in test [6] it was 0.28 µM. The GI50 in test [7] was found to be 0.23 µM; in test [8], 0.22 µM; in test [9], 150 nM. For the same molecule, the CC50 was determined as 58.9 µM in [1]; 25.7 µM in [3]; 41.7 µM in [4]; 35.5 µM in test [5]; 49 µM in test [6]; 46.8 µM in test [7]. The results for the CC50 in test [8] and in test [9] were 41.7 µM and 39.8 µM, respectively. For the same molecule, the median lethal concentration (LC50) in test [2] worked out at 52.5 µM.
In the case of `COc1cc2c(cc1C)NC(=O)/C2=C/c1c(Cl)[nH]c2c1ccc1ccccc12`, the LC50 in [2] came to 47.9 µM. This molecule showed a 50% growth inhibitory concentration (GI50) in [4] of 310 nM.
